Assay results as given in patent US6897348B2, “Bandage, methods of producing and using same” (Kimberly Clark Worldwide, Inc, priority 2001, dated 2005).

Tests used:
[1] = test system: full thickness (excisional) wounds on dorsal skin; test: Accelerated wound healing study, full thickness acute wound model (re-epithelialization, epithelial thickness); format: in vivo; details: rat full thickness wound
Method: Following the assessment of hemostatic agents, a study was conducted using the accelerated wound healing study protocol which follows. In the examples of the study, a series of comparative control bandage substrates were evaluated as to the speed at which wounds covered/dressed with such bandages healed. In particular, the rates of re-epithelialization were measured for wounds dressed by such control dressing materials. Additionally, the rates at which wounds heal that have been treated with a series of test compounds in accordance with the present invention, were also measured and compared with the controls.
For the purposes of the examples, the test compounds consisted of chitosan, Niacinamide ascorbate (hereinafter NA) prepared by the method which follows; and chitosan niacinamide ascorbate salt (hereinafter CNA, prepared by the method which follows), 2-ply surgical gauze, and Comfeel® Plus Clear Dressing (Colorplast).
Wounds were treated with test and control articles on the day of wounding (day 0) on 2, 4, 6, 8, 10, 12, and 14 days after the injury. CNA (freeze dried) was cut to the approximate size of the wound and applied over the wound. Chitosan (powder) and NA (powder) were applied over the wound to the depth that covered the underlying tissue. The gauze was cut to extend approximately 0.5 cm beyond the margins of the wound. The Comfeel® Plus dressing was cut to the approximate size of the wound and applied over the wound and also used to cover all test and control articles over the entire dorsal surface of the animal. […]
For the study, twenty four albino rats (12M/12F), each weighing between 250-300 g, were anesthetized (90 mg/Kg Ketamine HCL and 10 mg/Kg Xylazine) and the entire dorsal region of each rat was shaved. […] The epithelial thickness of the three sections of the wound (margin, center and midpoint between these two) was measured by morphometric analysis of the microscopic image using Image-Pro Plus software, Version 3.0 (Media Cybernetics). The average thickness of these sites within the wound was determined for wound healing of the entire site.

human blood = test: Lee and White Coagulation Assay in Human Blood; details: samples in dried form (5 mg/ml), triplicate
Method: For the purposes of this application, and as a preliminary matter, a series of hemostatic agents were evaluated in order to determine a relative comparison of the effectiveness of such compounds on human blood. Each of the compounds were evaluated in the comparison against the standard control (human blood) and the negative control heparin, which is an anti-coagulant. […] Lee and White Coagulation Assay in Human Blood [table]

Molecule | improvement in re-epithelialization over the gauze control ([1]; day 5) [%] | re-epithelialization compared with the Comfeel control ([1]; over 15 days) | re-epithelialization compared with the gauze control ([1]; over 15 days) | BLOOD CLOTTING TIME (MIN) (human blood)
NC(=O)c1cccnc1.O=C1O[C@H]([C@@H](O)CO)C(O)=C1O [NA, Niacinamide ascorbate] | > 50 | larger growth rates (re-epithelialization rates) | larger numbers for re-epithelialization than the control | 
Heparin |  |  |  | NC (NC = No Clot for 60 min)
